From US10670605B2, “Cysteine reactive probes and uses thereof” (The Scripps Research Institute, priority 2015, dated 2020)
“And” between values parts separate entries of the source, which are not always exact repeats. Equal values may be shown once.

Tests used:
Test in all cases: Competitive isoTOP-ABPP, cell lysates
Type in all cases: binding
PDIA6 C55 (Q15084) = target: T1, PDIA6 C55 (Q15084) (Homo sapiens, UniProt Q15084); conditions: for isoTOP-ABPP reactivity profile ratio, Q15084_C55 / isoTOP-ABPP reactivity ratio, Q15084_C55: 500 μm
T1 sequence (Q15084 20-440): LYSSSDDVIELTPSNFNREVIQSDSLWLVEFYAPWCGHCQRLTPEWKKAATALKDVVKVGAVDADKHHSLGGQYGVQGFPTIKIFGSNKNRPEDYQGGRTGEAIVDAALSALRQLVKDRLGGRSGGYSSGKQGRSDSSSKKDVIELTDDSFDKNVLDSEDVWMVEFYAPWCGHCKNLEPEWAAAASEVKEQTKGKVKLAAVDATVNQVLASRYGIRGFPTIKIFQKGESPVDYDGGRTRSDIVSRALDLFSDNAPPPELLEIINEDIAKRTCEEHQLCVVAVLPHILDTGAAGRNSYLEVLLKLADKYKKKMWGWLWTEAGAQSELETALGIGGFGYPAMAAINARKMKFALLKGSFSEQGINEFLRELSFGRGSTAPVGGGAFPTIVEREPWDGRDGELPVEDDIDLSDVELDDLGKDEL

ADA C75 (P00813) = target: T2, ADA C75 (P00813) (Homo sapiens, UniProt P00813); conditions: for isoTOP-ABPP reactivity profile ratio, P00813_C75 / isoTOP-ABPP reactivity ratio, P00813_C75: 500 μm, in-vitro_ramos
T2 sequence (P00813 1-363): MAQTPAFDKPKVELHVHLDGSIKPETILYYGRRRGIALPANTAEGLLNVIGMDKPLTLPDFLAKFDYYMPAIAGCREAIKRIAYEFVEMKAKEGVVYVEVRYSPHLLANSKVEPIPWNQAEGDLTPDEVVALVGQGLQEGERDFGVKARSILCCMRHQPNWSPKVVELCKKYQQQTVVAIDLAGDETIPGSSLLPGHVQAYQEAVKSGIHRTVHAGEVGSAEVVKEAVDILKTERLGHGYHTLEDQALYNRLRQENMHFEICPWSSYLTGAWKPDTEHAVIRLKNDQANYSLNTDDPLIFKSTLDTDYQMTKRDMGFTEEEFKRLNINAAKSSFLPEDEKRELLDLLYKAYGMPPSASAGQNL

PCK2 C306 (Q16822) = target: T3, PCK2 C306 (Q16822) (Homo sapiens, UniProt Q16822); conditions: for isoTOP-ABPP reactivity profile ratio, Q16822_C306 / isoTOP-ABPP reactivity ratio, Q16822_C306: 500 μm
T3 sequence (Q16822 33-640): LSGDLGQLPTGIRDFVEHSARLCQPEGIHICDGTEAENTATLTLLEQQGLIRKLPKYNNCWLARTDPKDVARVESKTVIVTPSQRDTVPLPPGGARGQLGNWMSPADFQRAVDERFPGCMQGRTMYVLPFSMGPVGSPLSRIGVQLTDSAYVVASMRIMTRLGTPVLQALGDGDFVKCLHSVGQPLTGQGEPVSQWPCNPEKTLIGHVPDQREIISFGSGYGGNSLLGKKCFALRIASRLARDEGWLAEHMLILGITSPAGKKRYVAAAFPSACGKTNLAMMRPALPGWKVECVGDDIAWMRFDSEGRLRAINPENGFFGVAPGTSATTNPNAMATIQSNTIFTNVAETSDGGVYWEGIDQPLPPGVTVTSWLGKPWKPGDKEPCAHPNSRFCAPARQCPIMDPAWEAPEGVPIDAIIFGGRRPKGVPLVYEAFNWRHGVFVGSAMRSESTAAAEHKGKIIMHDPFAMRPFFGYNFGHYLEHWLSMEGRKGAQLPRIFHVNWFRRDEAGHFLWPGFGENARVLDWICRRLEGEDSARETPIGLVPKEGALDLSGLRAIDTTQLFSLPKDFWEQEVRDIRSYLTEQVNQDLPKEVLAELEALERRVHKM

C=CC(=O)N(Cc1cccnc1)c1ccc(Oc2ccccc2)c(C(F)(F)F)c1 [compound 15]
isoTOP-ABPP ratio Q15084_C55 (PDIA6 C55 (Q15084); 500 μM, invitro, 231): 0.8
isoTOP-ABPP ratio (reactivity profile), Q15084_C55 (PDIA6 C55 (Q15084); 500 μm in-vitro ramos): 1.0
isoTOP-ABPP ratio (reactivity profile), P00813_C75 (ADA C75 (P00813); 500 μm in-vitro ramos): 1.1

COc1cc(NC(=O)CCl)cc(OC)c1 [compound 43]
isoTOP-ABPP reactivity profile ratio, Q16822_C306 (PCK2 C306 (Q16822); in-vitro_ramos_231): 3.3
isoTOP-ABPP reactivity profile ratio, Q15084_C55 (PDIA6 C55 (Q15084); in-vitro_ramos): 20.0
isoTOP-ABPP reactivity profile ratio, Q15084_C55 (PDIA6 C55 (Q15084); in-vitro_ramos_231): 20.0
isoTOP-ABPP reactivity profile ratio, P00813_C75 (ADA C75 (P00813)): 1.2

CC(C)CCOCCNC(=O)CCl [compound 27]
isoTOP-ABPP ratio (reactivity profile), Q16822_C306 (PCK2 C306 (Q16822); 500 μm in-vitro ramos): 1.1
isoTOP-ABPP ratio (reactivity profile), Q16822_C306 (PCK2 C306 (Q16822); 500 μm in-vitro ramos_231): 1.4 and 1.5
isoTOP-ABPP ratio (reactivity profile), Q15084_C55 (PDIA6 C55 (Q15084); 500 μm in-vitro ramos): 1.2
isoTOP-ABPP ratio (reactivity profile), Q15084_C55 (PDIA6 C55 (Q15084); 500 μm in-vitro ramos_231): 0.8 and 1.1
isoTOP-ABPP ratio (reactivity profile), P00813_C75 (ADA C75 (P00813); 500 μm in-vitro ramos): 1.0
isoTOP-ABPP ratio (reactivity profile), P00813_C75 (ADA C75 (P00813); 500 μm in-vitro ramos_231): 1.1

C=CC(=O)N1CCC(c2noc3ccc(F)cc23)CC1 [compound 37]
isoTOP-ABPP reactivity ratio, Q16822_C306 (PCK2 C306 (Q16822); in-vitro_ramos): 1.0
isoTOP-ABPP reactivity ratio, Q15084_C55 (PDIA6 C55 (Q15084); in-vitro_ramos): 1.0
isoTOP-ABPP reactivity ratio, P00813_C75 (ADA C75 (P00813)): 0.9

COc1ccc(C2CC(c3cccs3)=NN2C(=O)CCl)cc1 (stereo not shown) [compound 4]
R value (DMSO/fragment) (PCK2 C306 (Q16822); 250 μM, in vitro, MDA-MB-231): 2.2
R value (DMSO/fragment) (PDIA6 C55 (Q15084); 250 μM, in vitro, MDA-MB-231): 1.3
R value (DMSO/fragment) (PDIA6 C55 (Q15084); 250 μM, in vitro, Ramos): 1.2
R value (DMSO/fragment) (ADA C75 (P00813); 250 μM, in vitro, Ramos): 0.1

O=C(/C=C/c1ccccc1)Nc1cc(C(F)(F)F)cc(C(F)(F)F)c1 [compound 26]
isoTOP-ABPP ratio (reactivity profile), Q15084_C55 (PDIA6 C55 (Q15084); 500 μm in-vitro ramos): 0.9
isoTOP-ABPP ratio (reactivity profile), P00813_C75 (ADA C75 (P00813); 500 μm in-vitro ramos): 0.8

O=C(CCl)Nc1cccc2ncccc12 [compound 51]
isoTOP-ABPP reactivity profile ratio, Q16822_C306 (PCK2 C306 (Q16822); in-vitro_ramos): 0.8
isoTOP-ABPP reactivity profile ratio, Q15084_C55 (PDIA6 C55 (Q15084); in-vitro_ramos): 2.7
isoTOP-ABPP reactivity profile ratio, Q15084_C55 (PDIA6 C55 (Q15084); in-vitro_ramos_231): 2.5
isoTOP-ABPP reactivity profile ratio, P00813_C75 (ADA C75 (P00813)): 1.0

COc1ccccc1OCCNC(=O)CCl [compound 28]
isoTOP-ABPP ratio (reactivity profile), Q16822_C306 (PCK2 C306 (Q16822); 500 μm in-vitro ramos_231): 1.1
isoTOP-ABPP ratio (reactivity profile), Q15084_C55 (PDIA6 C55 (Q15084); 500 μm in-vitro ramos): 1.5
isoTOP-ABPP ratio (reactivity profile), Q15084_C55 (PDIA6 C55 (Q15084); 500 μm in-vitro ramos_231): 1.1
isoTOP-ABPP ratio (reactivity profile), P00813_C75 (ADA C75 (P00813); 500 μm in-vitro ramos): 0.9

O=C(CCl)N1CCN(S(=O)(=O)c2ccccc2F)CC1 [compound 10]
isoTOP-ABPP ratio, Q16822_C306 (PCK2 C306 (Q16822); 500 μM, invitro, 231): 1.9
isoTOP-ABPP ratio, Q16822_C306 (PCK2 C306 (Q16822); 500 μM, invitro, ramos): 1.1
isoTOP-ABPP ratio Q15084_C55 (PDIA6 C55 (Q15084); 500 μM, invitro, 231): 20.0
isoTOP-ABPP ratio, P00813_C75 (ADA C75 (P00813); 500 μM, invitro, ramos): 1.0

CC1CCc2ccccc2N1C(=O)CCl (stereo not shown) [compound 45]
isoTOP-ABPP reactivity profile ratio, Q16822_C306 (PCK2 C306 (Q16822); in-vitro_ramos_231): 3.3

O=C(CCl)Nc1ccccc1C1CCCCCC1 [compound 35]
isoTOP-ABPP reactivity ratio, Q16822_C306 (PCK2 C306 (Q16822); in-vitro_ramos): 1.0
isoTOP-ABPP reactivity ratio, Q16822_C306 (PCK2 C306 (Q16822); in-vitro_ramos_231): 0.9
isoTOP-ABPP reactivity ratio, Q15084_C55 (PDIA6 C55 (Q15084); in-vitro_ramos_231): 0.9
isoTOP-ABPP reactivity ratio, P00813_C75 (ADA C75 (P00813)): 1.1

C=CC(=O)N(c1ccccc1)C1CCCCC1 [compound 46]
isoTOP-ABPP reactivity profile ratio, Q16822_C306 (PCK2 C306 (Q16822); in-vitro_ramos_231): 0.9
isoTOP-ABPP reactivity profile ratio, Q15084_C55 (PDIA6 C55 (Q15084); in-vitro_ramos_231): 0.8

Cc1ccc(C=C(C#N)C(=O)NCCN2CCOCC2)cc1 [compound 41]
isoTOP-ABPP reactivity ratio, Q16822_C306 (PCK2 C306 (Q16822); in-vitro_ramos): 1.0
isoTOP-ABPP reactivity ratio, Q16822_C306 (PCK2 C306 (Q16822); in-vitro_ramos_231): 1.2
isoTOP-ABPP reactivity ratio, Q15084_C55 (PDIA6 C55 (Q15084); in-vitro_ramos): 0.8
isoTOP-ABPP reactivity ratio, Q15084_C55 (PDIA6 C55 (Q15084); in-vitro_ramos_231): 0.9
isoTOP-ABPP reactivity ratio, P00813_C75 (ADA C75 (P00813)): 1.1

O=C(CCl)N(Cc1ccc(F)cc1)C12CC3CC(CC(C3)C1)C2 [compound 34]
isoTOP-ABPP reactivity ratio, Q15084_C55 (PDIA6 C55 (Q15084); in-vitro_ramos_231): 0.9
isoTOP-ABPP reactivity ratio, P00813_C75 (ADA C75 (P00813)): 1.1

CC(C)(C)c1cc(NC(=O)CCl)on1 [compound 32]
isoTOP-ABPP reactivity ratio, Q16822_C306 (PCK2 C306 (Q16822); in-vitro_ramos_231): 3.2
isoTOP-ABPP reactivity ratio, Q15084_C55 (PDIA6 C55 (Q15084); in-vitro_ramos): 20.0
isoTOP-ABPP reactivity ratio, Q15084_C55 (PDIA6 C55 (Q15084); in-vitro_ramos_231): 20.0
isoTOP-ABPP reactivity ratio, P00813_C75 (ADA C75 (P00813)): 1.7

C=CC(=O)N(c1ccccc1)c1ccc(Br)cc1 [compound 5]
isoTOP-ABPP ratio, Q16822_C306 (PCK2 C306 (Q16822); 500 μM, invitro, 231): 1.7
isoTOP-ABPP ratio Q15084_C55 (PDIA6 C55 (Q15084); 500 μM, invitro, 231): 0.9
isoTOP-ABPP ratio Q15084_C55 (PDIA6 C55 (Q15084); 500 μM, invitro, ramos): 1.1
isoTOP-ABPP ratio, P00813_C75 (ADA C75 (P00813); 500 μM, invitro, ramos): 2.5

O=C(CCl)Nc1cc(C(F)(F)F)cc(C(F)(F)F)c1 [compound 3]
R value (DMSO/fragment) (PCK2 C306 (Q16822); 500 μM, in vitro, MDA-MB-231): 10.6
R value (DMSO/fragment) (PCK2 C306 (Q16822); 500 μM, invitro, ramos): 0.9
R value (DMSO/fragment) (PDIA6 C55 (Q15084); 500 μM, in vitro, MDA-MB-231): 17.9
R value (DMSO/fragment) (PDIA6 C55 (Q15084); 500 μM, invitro, ramos): 14.9
R value (DMSO/fragment) (ADA C75 (P00813); 500 μM, invitro, ramos): 1.5
